Experimental data reported in patent US5004747A, “Isoquinolinones” (May & Baker Limited, priority 1988, dated 1991).

Target: T1, rat hepatic microsomal HMG CoA reductase (Rattus norvegicus, UniProt P51639)
T1 construct: rat hepatic microsomal HMG CoA reductase; from tissue; host or cells: rat liver microsomes
T1 sequence (P51639 1-887): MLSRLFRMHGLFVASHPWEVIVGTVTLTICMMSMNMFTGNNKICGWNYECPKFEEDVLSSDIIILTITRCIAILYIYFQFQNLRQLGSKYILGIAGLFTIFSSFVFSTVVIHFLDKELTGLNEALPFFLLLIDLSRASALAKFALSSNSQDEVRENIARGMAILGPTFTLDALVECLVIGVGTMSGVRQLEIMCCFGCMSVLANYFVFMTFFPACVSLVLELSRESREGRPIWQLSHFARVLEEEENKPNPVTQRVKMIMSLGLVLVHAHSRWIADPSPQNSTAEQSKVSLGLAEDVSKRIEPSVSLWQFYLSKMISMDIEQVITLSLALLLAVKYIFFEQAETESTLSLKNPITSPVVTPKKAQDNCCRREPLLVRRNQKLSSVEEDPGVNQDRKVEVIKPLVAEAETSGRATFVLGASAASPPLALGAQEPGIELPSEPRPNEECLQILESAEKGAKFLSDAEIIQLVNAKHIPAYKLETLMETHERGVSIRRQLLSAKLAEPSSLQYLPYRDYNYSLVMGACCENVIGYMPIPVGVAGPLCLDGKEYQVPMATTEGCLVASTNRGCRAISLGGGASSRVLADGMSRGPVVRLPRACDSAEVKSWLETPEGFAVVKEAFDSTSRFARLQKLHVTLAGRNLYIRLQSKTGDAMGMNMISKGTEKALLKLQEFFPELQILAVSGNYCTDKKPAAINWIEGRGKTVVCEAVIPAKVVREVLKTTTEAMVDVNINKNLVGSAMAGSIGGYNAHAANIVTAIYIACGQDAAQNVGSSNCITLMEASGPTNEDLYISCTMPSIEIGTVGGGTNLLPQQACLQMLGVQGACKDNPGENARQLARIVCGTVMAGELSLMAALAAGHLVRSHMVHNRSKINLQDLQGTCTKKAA
Test: inhibition of rat hepatic microsomal HMG CoA reductase activity in vitro (Table I)
Assay type: biochemical
Details: for inhibition at 0.082 µg/mL: 0.082 micrograms/ml; for inhibition at 0.25 µg/mL: 0.25 micrograms/ml; for inhibition at 0.74 µg/mL: 0.74 micrograms/ml; for inhibition at 2.22 µg/mL: 2.22 micrograms/ml; for inhibition at 6.66 µg/mL: 6.66 micrograms/ml
Excerpt: In the table the concentrations of the test compounds are expressed in micrograms/ml.

Row | inhibition at 0.082 µg/mL | inhibition at 0.25 µg/mL | inhibition at 0.74 µg/mL | inhibition at 2.22 µg/mL | inhibition at 6.66 µg/mL | inhibition at 20 µg/mL (20.0 micrograms/ml) | Compound | inhibition at 0.0274 µg/mL (0.0274 micrograms/ml)
1 | 33% | 31% | 47% | 61% | 79% | 91% | CC(C)c1c(CC[C@@H]2C[C@@H](O)CC(=O)O2)n(-c2ccc(F)cc2)c(=O)c2ccccc12 [AH, (4R,6R)-6-[2-{2-(4-fluorophenyl)-4-isopropyl-1-oxo-1,2-dihydroisoquinolin-3-yl}ethyl]-4-hydroxy-3,4,5,6-tetrahydro-2H-pyran-2-one] | 
2 | 50% | 77% | 88% | 96% | 99% |  | CC(C)c1c(/C=C/[C@@H]2C[C@@H](O)CC(=O)O2)n(C2CCCCC2)c(=O)c2ccccc12 [Z, (4R,6S)-(E)-6-(2-(2-cyclohexyl-4-isopropyl-1-oxo-1,2-dihydroisoquinolin-3-yl)ethen-1-yl)-4-hydroxy-3,4,5,6-tetrahydro-2H-pyran-2-one] | 

Row | Compound | inhibition at 0.082 µg/mL | inhibition at 0.25 µg/mL | inhibition at 0.74 µg/mL | inhibition at 2.22 µg/mL | inhibition at 6.66 µg/mL | inhibition at 20 µg/mL (20.0 micrograms/ml) | inhibition at 0.0274 µg/mL (0.0274 micrograms/ml)
3 | CC(C)c1c(/C=C/[C@@H](O)C[C@@H](O)CC(=O)O)n(-c2ccc(F)cc2)c(=O)c2ccccc12 [AG, sodium (3R,5S)-(E)-3,5-dihydroxy-7-(2-(4-fluorophenyl)-4-isopropyl-1-oxo-1,2-dihydroisoquinolin-3-yl)hept-6-enoate] | 57% | 74% | 89% | 96% |  |  | 15%
